# Key:
# Assay in all cases: KINOMEscan competition binding
# Settings in all cases: compound 1.0 µM
# [1] = tested on: MET (human), P08581 [Y1235D]
# ACVR2A (human) = ACVR2A (human) (UniProt P27037)
# DAPK3 (human) = DAPK3 (human) (UniProt O43293)
# NEK7 (human) = NEK7 (human) (UniProt Q8TDX7)
# TLK1 (human) = TLK1 (human) (UniProt Q9UKI8)
# MAP2K6 (human) = MAP2K6 (human) (UniProt P52564)
# CHEK1 (human) = CHEK1 (human) (UniProt O14757)
# CHEK2 (human) = CHEK2 (human) (UniProt O96017)
# WEE1 (human) = WEE1 (human) (UniProt P30291)
# [2] = tested on: FLT3 (human), P36888 [D835Y]
# GAK (human) = GAK (human) (UniProt O14976)
# MAST1 (human) = MAST1 (human) (UniProt Q9Y2H9)
# MAP3K11 (human) = MAP3K11 (human) (UniProt Q16584)
# PRKACA (human) = PRKACA (human) (UniProt P17612)
# NUAK1 (human) = NUAK1 (human) (UniProt O60285)
# MUSK (human) = MUSK (human) (UniProt O15146)
# CDK15 (human) = CDK15 (human) (UniProt Q96Q40)
# DAPK1 (human) = DAPK1 (human) (UniProt P53355)
# RPS6KA4 KD2 (human) = RPS6KA4 KD2 (human) (UniProt O75676)
# MAPK13 (human) = MAPK13 (human) (UniProt O15264)
# CHUK (human) = CHUK (human) (UniProt O15111)
# TNNI3K (human) = TNNI3K (human) (UniProt Q59H18)
# MAPK10 (human) = MAPK10 (human) (UniProt P53779)
# NEK5 (human) = NEK5 (human) (UniProt Q6P3R8)
# FES (human) = FES (human) (UniProt P07332)
# ABL2 (human) = ABL2 (human) (UniProt P42684)
# MAPK7 (human) = MAPK7 (human) (UniProt Q13164)
# ULK2 (human) = ULK2 (human) (UniProt Q8IYT8)
# RIPK2 (human) = RIPK2 (human) (UniProt O43353)
# [3] = target: JAK3 JH1 catalytic (human) (UniProt P52333)
# [4] = tested on: KIT (human), P10721 [D816V]
# HIPK1 (human) = HIPK1 (human) (UniProt Q86Z02)
# MAK (human) = MAK (human) (UniProt P20794)
# MYLK (human) = MYLK (human) (UniProt Q15746)
# ERBB3 (human) = ERBB3 (human) (UniProt P21860)
# [5] = tested on: EGFR (human), P00533 [G719S]
# WEE2 (human) = WEE2 (human) (UniProt P0C1S8)
# MKNK2 (human) = MKNK2 (human) (UniProt Q9HBH9)
# LATS2 (human) = LATS2 (human) (UniProt Q9NRM7)
# CDK19 (human) = CDK19 (human) (UniProt Q9BWU1)
# Sequence of LATS2 (human) (Q9NRM7 whole entry, looked up): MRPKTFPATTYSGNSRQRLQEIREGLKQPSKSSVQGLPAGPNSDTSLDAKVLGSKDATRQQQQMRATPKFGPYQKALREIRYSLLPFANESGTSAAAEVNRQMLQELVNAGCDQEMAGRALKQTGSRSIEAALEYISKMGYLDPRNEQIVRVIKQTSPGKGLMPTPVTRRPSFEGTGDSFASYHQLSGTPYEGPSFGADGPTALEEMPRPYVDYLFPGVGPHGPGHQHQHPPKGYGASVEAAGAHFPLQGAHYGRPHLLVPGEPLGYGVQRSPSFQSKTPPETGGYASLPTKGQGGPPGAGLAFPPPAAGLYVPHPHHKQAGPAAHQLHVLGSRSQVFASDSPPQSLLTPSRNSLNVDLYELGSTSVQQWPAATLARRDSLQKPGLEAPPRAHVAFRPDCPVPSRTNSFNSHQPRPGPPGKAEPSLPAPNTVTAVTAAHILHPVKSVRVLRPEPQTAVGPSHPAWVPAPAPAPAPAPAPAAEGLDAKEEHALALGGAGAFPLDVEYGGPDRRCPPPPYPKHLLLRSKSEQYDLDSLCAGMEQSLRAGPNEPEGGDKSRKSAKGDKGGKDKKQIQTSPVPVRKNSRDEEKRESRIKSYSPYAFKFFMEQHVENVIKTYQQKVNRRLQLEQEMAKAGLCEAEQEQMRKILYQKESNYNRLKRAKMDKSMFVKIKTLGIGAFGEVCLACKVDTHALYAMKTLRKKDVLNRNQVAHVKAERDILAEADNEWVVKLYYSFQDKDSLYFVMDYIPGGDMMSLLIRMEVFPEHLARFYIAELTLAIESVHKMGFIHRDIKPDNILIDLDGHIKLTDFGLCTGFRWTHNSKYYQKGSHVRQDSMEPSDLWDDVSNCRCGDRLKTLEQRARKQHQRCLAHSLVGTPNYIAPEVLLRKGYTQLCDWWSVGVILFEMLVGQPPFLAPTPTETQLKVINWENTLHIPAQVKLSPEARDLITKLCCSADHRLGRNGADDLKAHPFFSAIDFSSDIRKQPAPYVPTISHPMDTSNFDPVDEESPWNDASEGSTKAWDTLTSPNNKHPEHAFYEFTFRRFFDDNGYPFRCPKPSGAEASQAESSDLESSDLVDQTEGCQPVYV
# Sequence of NEK7 (human) (Q8TDX7 whole entry, looked up): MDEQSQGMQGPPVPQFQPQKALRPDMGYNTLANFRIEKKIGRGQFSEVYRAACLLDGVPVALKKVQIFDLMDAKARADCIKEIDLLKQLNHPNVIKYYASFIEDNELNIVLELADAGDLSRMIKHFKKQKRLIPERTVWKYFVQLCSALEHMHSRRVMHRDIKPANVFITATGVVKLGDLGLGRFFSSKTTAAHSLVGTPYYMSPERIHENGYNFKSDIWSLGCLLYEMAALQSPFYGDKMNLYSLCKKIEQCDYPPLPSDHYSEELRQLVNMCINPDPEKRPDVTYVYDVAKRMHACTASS
# Sequence of NUAK1 (human) (O60285 whole entry, looked up): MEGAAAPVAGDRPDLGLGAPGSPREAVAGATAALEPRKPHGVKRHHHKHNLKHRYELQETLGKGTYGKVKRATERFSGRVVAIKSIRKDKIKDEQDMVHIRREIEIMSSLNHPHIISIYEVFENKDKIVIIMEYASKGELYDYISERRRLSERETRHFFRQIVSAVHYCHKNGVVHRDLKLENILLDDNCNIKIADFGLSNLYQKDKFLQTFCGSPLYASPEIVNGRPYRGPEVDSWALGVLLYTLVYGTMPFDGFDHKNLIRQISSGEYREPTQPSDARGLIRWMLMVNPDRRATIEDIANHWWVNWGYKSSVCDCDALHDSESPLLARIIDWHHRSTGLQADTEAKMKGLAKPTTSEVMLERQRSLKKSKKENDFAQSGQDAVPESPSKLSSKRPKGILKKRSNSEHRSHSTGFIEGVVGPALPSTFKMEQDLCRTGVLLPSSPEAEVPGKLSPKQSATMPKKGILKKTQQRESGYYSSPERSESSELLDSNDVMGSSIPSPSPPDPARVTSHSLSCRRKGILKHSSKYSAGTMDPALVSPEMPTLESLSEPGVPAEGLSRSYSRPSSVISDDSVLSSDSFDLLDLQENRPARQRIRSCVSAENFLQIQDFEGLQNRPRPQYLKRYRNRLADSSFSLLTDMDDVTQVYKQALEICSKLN
# Sequence of RIPK2 (human) (O43353 whole entry, looked up): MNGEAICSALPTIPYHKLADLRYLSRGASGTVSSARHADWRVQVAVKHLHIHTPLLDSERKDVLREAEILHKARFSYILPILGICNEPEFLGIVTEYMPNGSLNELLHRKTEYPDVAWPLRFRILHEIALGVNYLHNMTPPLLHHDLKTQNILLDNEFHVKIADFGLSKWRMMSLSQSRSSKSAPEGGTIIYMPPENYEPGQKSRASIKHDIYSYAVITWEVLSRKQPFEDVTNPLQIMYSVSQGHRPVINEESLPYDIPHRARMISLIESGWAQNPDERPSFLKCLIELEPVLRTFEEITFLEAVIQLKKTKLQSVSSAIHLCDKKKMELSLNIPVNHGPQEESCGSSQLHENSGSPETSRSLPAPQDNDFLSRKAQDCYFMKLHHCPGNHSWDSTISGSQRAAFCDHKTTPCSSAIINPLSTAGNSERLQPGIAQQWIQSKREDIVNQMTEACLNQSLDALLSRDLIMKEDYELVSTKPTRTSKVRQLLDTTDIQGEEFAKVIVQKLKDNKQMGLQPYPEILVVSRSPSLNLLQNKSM
# Sequence of MKNK2 (human) (Q9HBH9 whole entry, looked up): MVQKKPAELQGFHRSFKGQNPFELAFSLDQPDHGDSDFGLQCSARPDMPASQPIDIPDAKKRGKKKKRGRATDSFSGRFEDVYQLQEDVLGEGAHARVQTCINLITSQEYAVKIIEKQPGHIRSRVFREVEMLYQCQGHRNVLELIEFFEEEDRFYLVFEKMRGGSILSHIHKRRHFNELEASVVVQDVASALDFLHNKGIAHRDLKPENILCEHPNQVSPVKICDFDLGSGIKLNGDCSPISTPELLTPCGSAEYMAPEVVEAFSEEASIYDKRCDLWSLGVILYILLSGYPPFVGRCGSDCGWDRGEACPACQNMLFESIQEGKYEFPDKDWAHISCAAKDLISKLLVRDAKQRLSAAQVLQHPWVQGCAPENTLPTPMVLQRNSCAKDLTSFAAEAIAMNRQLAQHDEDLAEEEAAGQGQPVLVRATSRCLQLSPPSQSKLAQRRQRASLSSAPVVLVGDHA
# Sequence of HIPK1 (human) (Q86Z02 whole entry, looked up): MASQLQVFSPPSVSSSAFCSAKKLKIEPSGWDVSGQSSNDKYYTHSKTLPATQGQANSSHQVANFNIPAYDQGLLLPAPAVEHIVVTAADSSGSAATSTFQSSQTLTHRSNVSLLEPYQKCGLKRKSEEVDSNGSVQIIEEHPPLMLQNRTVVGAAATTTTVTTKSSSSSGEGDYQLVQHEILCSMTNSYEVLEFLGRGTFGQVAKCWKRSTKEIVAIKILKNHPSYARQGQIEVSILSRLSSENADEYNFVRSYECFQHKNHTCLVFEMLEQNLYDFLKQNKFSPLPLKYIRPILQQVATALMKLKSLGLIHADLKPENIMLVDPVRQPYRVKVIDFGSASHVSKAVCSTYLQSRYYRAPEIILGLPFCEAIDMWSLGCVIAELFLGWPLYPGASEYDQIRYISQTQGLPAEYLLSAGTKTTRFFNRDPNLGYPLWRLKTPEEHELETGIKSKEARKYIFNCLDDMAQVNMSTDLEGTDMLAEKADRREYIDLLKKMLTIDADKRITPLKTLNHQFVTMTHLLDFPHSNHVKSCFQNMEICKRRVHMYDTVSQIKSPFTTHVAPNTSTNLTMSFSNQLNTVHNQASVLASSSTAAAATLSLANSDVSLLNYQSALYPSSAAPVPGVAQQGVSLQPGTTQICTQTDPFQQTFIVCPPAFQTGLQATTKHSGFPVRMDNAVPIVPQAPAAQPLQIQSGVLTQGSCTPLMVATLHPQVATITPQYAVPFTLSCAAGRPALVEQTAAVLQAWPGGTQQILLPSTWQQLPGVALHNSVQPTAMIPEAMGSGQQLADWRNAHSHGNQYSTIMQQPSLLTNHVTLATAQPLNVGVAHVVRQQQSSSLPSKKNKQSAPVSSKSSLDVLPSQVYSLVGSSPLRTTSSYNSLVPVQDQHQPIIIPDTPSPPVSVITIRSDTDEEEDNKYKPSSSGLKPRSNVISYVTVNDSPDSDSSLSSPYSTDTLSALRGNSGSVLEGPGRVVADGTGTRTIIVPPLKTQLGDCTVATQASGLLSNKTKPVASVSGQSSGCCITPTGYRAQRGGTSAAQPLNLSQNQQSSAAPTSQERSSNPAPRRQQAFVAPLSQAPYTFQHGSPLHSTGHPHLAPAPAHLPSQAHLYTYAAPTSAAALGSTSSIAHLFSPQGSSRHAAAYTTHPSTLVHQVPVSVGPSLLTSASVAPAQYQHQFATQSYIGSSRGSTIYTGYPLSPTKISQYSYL
# Sequence of TLK1 (human) (Q9UKI8 whole entry, looked up): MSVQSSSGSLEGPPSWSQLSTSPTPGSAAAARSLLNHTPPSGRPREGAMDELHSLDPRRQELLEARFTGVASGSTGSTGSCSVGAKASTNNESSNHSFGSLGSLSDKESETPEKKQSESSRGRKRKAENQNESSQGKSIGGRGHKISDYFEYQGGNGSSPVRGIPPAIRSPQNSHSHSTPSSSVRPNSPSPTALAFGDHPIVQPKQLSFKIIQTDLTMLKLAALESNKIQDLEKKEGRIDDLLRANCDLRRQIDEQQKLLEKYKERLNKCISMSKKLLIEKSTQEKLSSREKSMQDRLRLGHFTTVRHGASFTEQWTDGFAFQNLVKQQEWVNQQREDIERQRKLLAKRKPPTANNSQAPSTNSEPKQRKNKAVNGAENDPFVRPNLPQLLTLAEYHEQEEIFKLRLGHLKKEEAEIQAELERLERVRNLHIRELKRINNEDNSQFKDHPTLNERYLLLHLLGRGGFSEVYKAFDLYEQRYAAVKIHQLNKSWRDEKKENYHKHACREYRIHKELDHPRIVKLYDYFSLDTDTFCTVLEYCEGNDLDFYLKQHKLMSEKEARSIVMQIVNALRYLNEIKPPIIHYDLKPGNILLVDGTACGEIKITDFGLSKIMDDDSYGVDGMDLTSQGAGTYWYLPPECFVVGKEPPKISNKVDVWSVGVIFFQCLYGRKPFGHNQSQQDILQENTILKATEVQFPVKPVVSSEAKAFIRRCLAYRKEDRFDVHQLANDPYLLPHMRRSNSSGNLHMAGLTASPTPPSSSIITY
compound,measurement,setting,value
Nc1cc(C(F)(F)F)c(-c2cc(N3CCOCC3)nc(N3CCOCC3)n2)cn1,inhibition of binding,[1],0%
same,inhibition of binding,ACVR2A (human),5%
same,inhibition of binding,DAPK3 (human),10%
same,inhibition of binding,NEK7 (human),0%
same,inhibition of binding,TLK1 (human),12%
same,inhibition of binding,MAP2K6 (human),0%
same,inhibition of binding,CHEK1 (human),1%
same,inhibition of binding,CHEK2 (human),0%
same,inhibition of binding,WEE1 (human),2%
same,inhibition of binding,[2],12%
same,inhibition of binding,GAK (human),6%
same,inhibition of binding,MAST1 (human),0%
same,inhibition of binding,MAP3K11 (human),0%
same,inhibition of binding,PRKACA (human),0%
same,inhibition of binding,NUAK1 (human),42%
same,inhibition of binding,MUSK (human),0%
same,inhibition of binding,CDK15 (human),0%
same,inhibition of binding,DAPK1 (human),2%
same,inhibition of binding,RPS6KA4 KD2 (human),0%
same,inhibition of binding,MAPK13 (human),0%
same,inhibition of binding,CHUK (human),29%
same,inhibition of binding,TNNI3K (human),0%
same,inhibition of binding,MAPK10 (human),17%
same,inhibition of binding,NEK5 (human),0%
same,inhibition of binding,FES (human),0%
same,inhibition of binding,ABL2 (human),0%
same,inhibition of binding,MAPK7 (human),0%
same,inhibition of binding,ULK2 (human),0%
same,inhibition of binding,RIPK2 (human),0%
same,inhibition of binding,[3],100%
same,inhibition of binding,[4],3%
same,inhibition of binding,HIPK1 (human),0%
same,inhibition of binding,MAK (human),0%
same,inhibition of binding,MYLK (human),12%
same,inhibition of binding,ERBB3 (human),22%
same,inhibition of binding,[5],10%
same,inhibition of binding,WEE2 (human),0%
same,inhibition of binding,MKNK2 (human),5%
same,inhibition of binding,LATS2 (human),19%
same,inhibition of binding,CDK19 (human),0%
